Biological target: T1, serotonin 5-HT6 receptor (Homo sapiens, UniProt P50406)
T1 construct: expressed in transfected cells
Experiment: Binding experiments on cloned 5-HT6 receptors (procedures of WO 98/27081)
Source text: Binding Experiments on Cloned […] Receptors
Compounds can be tested following the procedures outlined in WO 98/27081.

T1 sequence (P50406 whole entry): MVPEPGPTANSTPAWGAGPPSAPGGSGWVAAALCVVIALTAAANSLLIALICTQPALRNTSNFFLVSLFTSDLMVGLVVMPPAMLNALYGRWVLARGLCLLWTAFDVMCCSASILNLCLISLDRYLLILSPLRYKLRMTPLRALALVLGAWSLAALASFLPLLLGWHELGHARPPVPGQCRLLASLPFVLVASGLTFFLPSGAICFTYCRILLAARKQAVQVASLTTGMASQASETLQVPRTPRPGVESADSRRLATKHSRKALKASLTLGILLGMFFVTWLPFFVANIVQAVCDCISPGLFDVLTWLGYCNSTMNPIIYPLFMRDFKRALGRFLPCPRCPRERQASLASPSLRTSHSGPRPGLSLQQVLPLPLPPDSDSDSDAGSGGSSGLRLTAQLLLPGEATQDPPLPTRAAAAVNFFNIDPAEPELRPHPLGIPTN

Ki: 0.1 to 1 nM
SMILES: O=S(=O)(c1ccc2c(c1)CCNCC2)c1c[nH]c2ccccc12 [Example 43, 7-(3-(1H-indolyl)sulfonyl)-2,3,4,5-tetrahydro-1H-3-benzazepine]
